Laboratory results from patent US7179806B2, “Δ1-pyrrolines used as pesticides” (Bayer Cropscience AG, priority 2000, dated 2007).

Experiment: log P determination by HPLC (reversed-phase C18, EEC Directive 79/831 Annex V.A8)
Type: physicochemical
Settings: pH 2.3, 0.1% aqueous phosphoric acid/acetonitrile gradient, 43° C
Description: Mobile phases for determination in the acidic range: 0.1% aqueous phosphoric acid, acetonitrile; linear gradient from 10% acetonitrile to 90% acetonitrile.

| log P (pH 2.3) | SMILES | chromatographic logP |
| --- | --- | --- |
| 2.40 | CN(C)c1ncc(-c2ccc(C3CCC(c4c(F)cccc4F)=N3)cc2)cn1 (stereo not shown) [Example 42] | – |
| – | CC(C)(C)OC(=O)N1CCN(c2ccc(-c3ccc(C4CCC(c5c(F)cccc5F)=N4)cc3)nn2)CC1 (stereo not shown) [Example 51] | 2.07 |

Same assay, conditions: reversed-phase C18 HPLC column, pH 2.3, pH 2.3, 0.1% aqueous phosphoric acid/acetonitrile gradient, 43° C

| SMILES | chromatographic logP |
| --- | --- |
| Fc1cccc(F)c1C1=NC(c2ccc(-c3ccc(C(F)(F)F)cn3)cc2)CC1 (stereo not shown) [Example 2] | 3.25 |
| Fc1cccc(F)c1C1=NC(c2ccc(-c3ccc(Cl)cn3)cc2)CC1 (stereo not shown) [Example 5] | 2.86 |
| CC(C)OC(=O)c1ccc(-c2ccc(C3CCC(c4c(F)cccc4F)=N3)cc2)nc1 (stereo not shown) [Example 8] | 3.89 |
| CC(C)COC(=O)c1ccc(-c2ccc(C3CCC(c4c(F)cccc4F)=N3)cc2)nc1 (stereo not shown) [Example 9] | 3.28 |
| COCCN(Cc1ccc(-c2ccc(C3CCC(c4c(F)cccc4F)=N3)cc2)nc1)S(=O)(=O)C(F)(F)F (stereo not shown) [Example 16] | 3.21 |
| CCN(Cc1ccc(-c2ccc(C3CCC(c4c(F)cccc4F)=N3)cc2)nc1)S(=O)(=O)C(F)(F)F (stereo not shown) [Example 17] | 3.35 |
| Fc1cccc(F)c1C1=NC(c2ccc(-c3ccc(OCC(F)(F)F)nc3)cc2)CC1 (stereo not shown) [Example 20] | 3.66 |
| Fc1cccc(F)c1C1=NC(c2ccc(-c3ccc(N4CCOCC4)nc3)cc2)CC1 (stereo not shown) [Example 21] | 1.44 |
| CN(c1ccc(-c2ccc(C3CCC(c4c(F)cccc4F)=N3)cc2)nc1)S(=O)(=O)C(F)(F)F (stereo not shown) [Example 23] | 2.63 |
| Fc1cccc(F)c1C1=NC(c2ccc(-c3ccc(N4CCCC4)nc3)cc2)CC1 (stereo not shown) [Example 24] | 1.45 |
| Fc1cccc(F)c1C1=NC(c2ccc(-c3cnc(N4CCOCC4)nc3)cc2)CC1 (stereo not shown) [Example 32] | 2.18 |
| CC(C)COc1ncc(-c2ccc(C3CCC(c4c(F)cccc4F)=N3)cc2)cn1 (stereo not shown) [Example 33] | 3.22 |
| CC1CC(C)CN(c2ncc(-c3ccc(C4CCC(c5c(F)cccc5F)=N4)cc3)cn2)C1 (stereo not shown) [Example 34] | 4.39 |
| CC(C)(C)C(=O)N1CCN(c2ncc(-c3ccc(C4CCC(c5c(F)cccc5F)=N4)cc3)cn2)CC1 (stereo not shown) [Example 36] | 2.81 |
| CN(c1ncc(-c2ccc(C3CCC(c4c(F)cccc4F)=N3)cc2)cn1)S(=O)(=O)C(F)(F)F (stereo not shown) [Example 37] | 3.5 |
| CC(C)Oc1ccc(-c2ccc(C3CCC(c4c(F)cccc4F)=N3)cc2)nn1 (stereo not shown) [Example 46] | 2.5 |
| Fc1cccc(F)c1C1=NC(c2ccc(-c3ccc(N4CCOCC4)nn3)cc2)CC1 (stereo not shown) [Example 48] | 1.19 |
| O=C1CCCN1c1ccc(-c2ccc(C3CCC(c4c(F)cccc4F)=N3)cc2)nn1 (stereo not shown) [Example 50] | 1.85 |

| SMILES | chromatographic logP |
| --- | --- |
| CN(c1ccc(-c2ccc(C3CCC(c4c(F)cccc4F)=N3)cc2)nn1)S(=O)(=O)C(F)(F)F (stereo not shown) [Example 53] | 1.66 |
| CCCCN(CCCC)c1ccc(-c2ccc(C3CCC(c4c(F)cccc4F)=N3)cc2)nn1 (stereo not shown) [Example 55] | 2.56 |
| CN(C(=O)C(C)(C)C)c1ccc(-c2ccc(C3CCC(c4c(F)cccc4F)=N3)cc2)nn1 (stereo not shown) [Example 56] | 2.29 |
| CCCCCCC(=O)N(c1ccc(-c2ccc(C3CCC(c4c(F)cccc4F)=N3)cc2)nn1)C1CCCC1 (stereo not shown) [Example 58] | 4.82 |
| CCCCCCC(=O)N(c1ccc(-c2ccc(C3CCC(c4c(F)cccc4F)=N3)cc2)nn1)C1CCCCC1 (stereo not shown) [Example 59] | 4.35 |
| CCCCCCN(C(C)=O)c1ccc(-c2ccc(C3CCC(c4c(F)cccc4F)=N3)cc2)nn1 (stereo not shown) [Example 60] | 3.11 |
| CCCN(C(=O)C(C)(C)C)c1ccc(-c2ccc(C3CCC(c4c(F)cccc4F)=N3)cc2)nn1 (stereo not shown) [Example 62] | 2.95 |
| CC(C)(C)C(=O)N(c1ccc(-c2ccc(C3CCC(c4c(F)cccc4F)=N3)cc2)nn1)C1CCCC1 (stereo not shown) [Example 63] | 3.22 |
| CC(C)(C)C(=O)N(c1ccc(-c2ccc(C3CCC(c4c(F)cccc4F)=N3)cc2)nn1)C1CCCCC1 (stereo not shown) [Example 65] | 3.56 |
| CC(C)(C)C(=O)N(c1ccc(-c2ccc(C3CCC(c4c(F)cccc4F)=N3)cc2)nn1)C1CC1 (stereo not shown) [Example 66] | 2.53 |
| CCCCCC(=O)N(C)c1ccc(-c2ccc(C3CCC(c4c(F)cccc4F)=N3)cc2)nn1 (stereo not shown) [Example 68] | 3.24 |
| Fc1cccc(F)c1C1=NC(c2ccc(-c3ccc(OC(C(F)(F)F)C(F)(F)F)nn3)cc2)CC1 (stereo not shown) [Example 69] | 3.7 |
| CCN(C)c1ccc(-c2ccc(C3CCC(c4c(F)cccc4F)=N3)cc2)nn1 (stereo not shown) [Example 75] | 1.23 |
| CCCCN(CC)c1ccc(-c2ccc(C3CCC(c4c(F)cccc4F)=N3)cc2)nn1 (stereo not shown) [Example 77] | 1.82 |
| CCN(CC)c1ccc(-c2ccc(C3CCC(c4c(F)cccc4F)=N3)cc2)nn1 (stereo not shown) [Example 80] | 1.39 |
| Fc1cccc(F)c1C1=NC(c2ccc(-c3ccc(N4CCCC4)nn3)cc2)CC1 (stereo not shown) [Example 81] | 1.28 |
| CC(=O)OCCCN(Cc1ccc(-c2ccc(C3CCC(c4c(F)cccc4F)=N3)cc2)nn1)C(C)=O (stereo not shown) [Example 89] | 1.77 |

Further lines, results first:

| chromatographic logP | SMILES |
| --- | --- |
| 3.57 | CCCN(CC)c1ncc(-c2ccc(C3CCC(c4c(F)cccc4F)=N3)cc2)cn1 (stereo not shown) [Example 1, N-(5-{4-[5-(2,6-difluorophenyl)-3,4-dihydro-2H-pyrrol-2-yl]phenyl}-2-pyrimidinyl)-N-ethyl-N-propylamine] |
| 2.88 | Fc1cccc(F)c1C1=NC(c2ccc(-c3cnc(OCC(F)(F)F)nc3)cc2)CC1 (stereo not shown) [Example 3, 5-{4-[5-(2,6-difluorophenyl)-3,4-dihydro-2H-pyrrol-2-yl]phenyl}-2-(2,2,2-trifluorethoxy)pyrimidine] |
| 1.24 | Fc1cccc(F)c1C1=NC(c2ccc(-c3ccccn3)cc2)CC1 (stereo not shown) [Example 4] |
| 1.74 | N#CCc1ccc(-c2ccc(C3CCC(c4c(F)cccc4F)=N3)cc2)nc1 (stereo not shown) [Example 6] |
| 2.39 | COC(=O)c1ccc(-c2ccc(C3CCC(c4c(F)cccc4F)=N3)cc2)nc1 (stereo not shown) [Example 7] |
| 2.02 | CCN(CC)C(=O)c1ccc(-c2ccc(C3CCC(c4c(F)cccc4F)=N3)cc2)nc1 (stereo not shown) [Example 10] |
| 2.7 | CCCN(CCC)C(=O)c1ccc(-c2ccc(C3CCC(c4c(F)cccc4F)=N3)cc2)nc1 (stereo not shown) [Example 11] |
| 3.06 | CN(Cc1ccc(-c2ccc(C3CCC(c4c(F)cccc4F)=N3)cc2)nc1)S(=O)(=O)C(F)(F)F (stereo not shown) [Example 13] |
| 3.48 | CC(C)N(Cc1ccc(-c2ccc(C3CCC(c4c(F)cccc4F)=N3)cc2)nc1)S(=O)(=O)C(F)(F)F (stereo not shown) [Example 14] |
| 3.39 | O=S(=O)(N(Cc1ccc(-c2ccc(C3CCC(c4c(F)cccc4F)=N3)cc2)nc1)C1CC1)C(F)(F)F (stereo not shown) [Example 15] |
| 1.12 | Fc1cccc(F)c1C1=NC(c2ccc(-c3cccnc3)cc2)CC1 (stereo not shown) [Example 18] |
| 2.58 | Fc1cccc(F)c1C1=NC(c2ccc(-c3ccc(Cl)nc3)cc2)CC1 (stereo not shown) [Example 19] |
| 1.79 | Fc1cccc(F)c1C1=NC(c2ccc(-c3ncccn3)cc2)CC1 (stereo not shown) [Example 26] |
| 1.98 | Fc1cccc(F)c1C1=NC(c2ccc(-c3cnc(Cl)nc3)cc2)CC1 (stereo not shown) [Example 27] |
| 1.49 | Fc1cccc(F)c1C1=NC(c2ccc(-c3cncnc3)cc2)CC1 (stereo not shown) [Example 28] |
| 3.62 | CN(C)c1ncc(-c2ccc(C3CCC(c4c(F)cccc4F)=N3)cc2)cn1 (stereo not shown) [Example 29] |
| 2.61 | CC(C)Oc1ncc(-c2ccc(C3CCC(c4c(F)cccc4F)=N3)cc2)cn1 (stereo not shown) [Example 30] |
| 3.49 | CC(C)Sc1ncc(-c2ccc(C3CCC(c4c(F)cccc4F)=N3)cc2)cn1 (stereo not shown) [Example 31] |

| chromatographic logP | SMILES |
| --- | --- |
| 3.4 | Fc1cccc(F)c1C1=NC(c2ccc(-c3cnc(N4CCCCC4)nc3)cc2)CC1 (stereo not shown) [Example 35] |
| 3.63 | O=S(=O)(N(c1ncc(-c2ccc(C3CCC(c4c(F)cccc4F)=N3)cc2)cn1)C1CC1)C(F)(F)F (stereo not shown) [Example 38] |
| 2.11 | Fc1cccc(F)c1C1=NC(c2ccc(-c3cnc(N4CCCC4)nc3)cc2)CC1 (stereo not shown) [Example 41] |
| 3 | CCN(CC)c1ncc(-c2ccc(C3CCC(c4c(F)cccc4F)=N3)cc2)cn1 (stereo not shown) [Example 43] |
| 3.77 | Fc1cccc(F)c1C1=NC(c2ccc(-c3ccc(OCC(F)(F)F)nn3)cc2)CC1 (stereo not shown) [Example 45] |
| 2.94 | CC(C)Sc1ccc(-c2ccc(C3CCC(c4c(F)cccc4F)=N3)cc2)nn1 (stereo not shown) [Example 47] |
| 1.26 | CCCNc1ccc(-c2ccc(C3CCC(c4c(F)cccc4F)=N3)cc2)nn1 (stereo not shown) [Example 49] |
| 1.6 | CCCN(CC)c1ccc(-c2ccc(C3CCC(c4c(F)cccc4F)=N3)cc2)nn1 (stereo not shown) [Example 52] |
| 2.03 | CC(=O)N(c1ccc(-c2ccc(C3CCC(c4c(F)cccc4F)=N3)cc2)nn1)C(C)C (stereo not shown) [Example 54] |
| 4.35 | CCCCCCN(C(=O)C(C)(C)C)c1ccc(-c2ccc(C3CCC(c4c(F)cccc4F)=N3)cc2)nn1 (stereo not shown) [Example 61] |
| 3.89 | CCCCCCC(=O)N(CCC)c1ccc(-c2ccc(C3CCC(c4c(F)cccc4F)=N3)cc2)nn1 (stereo not shown) [Example 64] |
| 1.48 | CC(=O)N(C)c1ccc(-c2ccc(C3CCC(c4c(F)cccc4F)=N3)cc2)nn1 (stereo not shown) [Example 67] |
| 1.63 | CCOC(=O)N1CCN(c2ccc(-c3ccc(C4CCC(c5c(F)cccc5F)=N4)cc3)nn2)CC1 (stereo not shown) [Example 70] |
| 3.58 | Fc1cccc(F)c1C1=NC(c2ccc(-c3ccc(OCCCC(F)(F)C(F)(F)F)nn3)cc2)CC1 (stereo not shown) [Example 73] |
| 2.95 | FC(F)=C(F)CCOc1ccc(-c2ccc(C3CCC(c4c(F)cccc4F)=N3)cc2)nn1 (stereo not shown) [Example 74] |
| 1.86 | CCCN(CCC)c1ccc(-c2ccc(C3CCC(c4c(F)cccc4F)=N3)cc2)nn1 (stereo not shown) [Example 78] |
| 1.08 | CN(C)c1ccc(-c2ccc(C3CCC(c4c(F)cccc4F)=N3)cc2)nn1 (stereo not shown) [Example 79] |
| 1.4 | CC(C)S(=O)(=O)c1ccc(-c2ccc(C3CCC(c4c(F)cccc4F)=N3)cc2)nn1 (stereo not shown) [Example 82] |
